{"source": "patent US8722727B2", "about": "“Antifungal agents” (Seynix, Inc., priority 2008, dated 2014)"}
{"target": "T1, glucan synthase (GS) (Candida albicans, UniProt O13428)", "T1 construct": "Extraction of GS activity from membranes was performed at a protein concentration of 5 mg/mL in extraction buffer; endogenous in cells; host or cells: Candida albicans MY1055 (membrane fraction, detergent extraction, product entrapment)", "T1 sequence (O13428 1-1897)": "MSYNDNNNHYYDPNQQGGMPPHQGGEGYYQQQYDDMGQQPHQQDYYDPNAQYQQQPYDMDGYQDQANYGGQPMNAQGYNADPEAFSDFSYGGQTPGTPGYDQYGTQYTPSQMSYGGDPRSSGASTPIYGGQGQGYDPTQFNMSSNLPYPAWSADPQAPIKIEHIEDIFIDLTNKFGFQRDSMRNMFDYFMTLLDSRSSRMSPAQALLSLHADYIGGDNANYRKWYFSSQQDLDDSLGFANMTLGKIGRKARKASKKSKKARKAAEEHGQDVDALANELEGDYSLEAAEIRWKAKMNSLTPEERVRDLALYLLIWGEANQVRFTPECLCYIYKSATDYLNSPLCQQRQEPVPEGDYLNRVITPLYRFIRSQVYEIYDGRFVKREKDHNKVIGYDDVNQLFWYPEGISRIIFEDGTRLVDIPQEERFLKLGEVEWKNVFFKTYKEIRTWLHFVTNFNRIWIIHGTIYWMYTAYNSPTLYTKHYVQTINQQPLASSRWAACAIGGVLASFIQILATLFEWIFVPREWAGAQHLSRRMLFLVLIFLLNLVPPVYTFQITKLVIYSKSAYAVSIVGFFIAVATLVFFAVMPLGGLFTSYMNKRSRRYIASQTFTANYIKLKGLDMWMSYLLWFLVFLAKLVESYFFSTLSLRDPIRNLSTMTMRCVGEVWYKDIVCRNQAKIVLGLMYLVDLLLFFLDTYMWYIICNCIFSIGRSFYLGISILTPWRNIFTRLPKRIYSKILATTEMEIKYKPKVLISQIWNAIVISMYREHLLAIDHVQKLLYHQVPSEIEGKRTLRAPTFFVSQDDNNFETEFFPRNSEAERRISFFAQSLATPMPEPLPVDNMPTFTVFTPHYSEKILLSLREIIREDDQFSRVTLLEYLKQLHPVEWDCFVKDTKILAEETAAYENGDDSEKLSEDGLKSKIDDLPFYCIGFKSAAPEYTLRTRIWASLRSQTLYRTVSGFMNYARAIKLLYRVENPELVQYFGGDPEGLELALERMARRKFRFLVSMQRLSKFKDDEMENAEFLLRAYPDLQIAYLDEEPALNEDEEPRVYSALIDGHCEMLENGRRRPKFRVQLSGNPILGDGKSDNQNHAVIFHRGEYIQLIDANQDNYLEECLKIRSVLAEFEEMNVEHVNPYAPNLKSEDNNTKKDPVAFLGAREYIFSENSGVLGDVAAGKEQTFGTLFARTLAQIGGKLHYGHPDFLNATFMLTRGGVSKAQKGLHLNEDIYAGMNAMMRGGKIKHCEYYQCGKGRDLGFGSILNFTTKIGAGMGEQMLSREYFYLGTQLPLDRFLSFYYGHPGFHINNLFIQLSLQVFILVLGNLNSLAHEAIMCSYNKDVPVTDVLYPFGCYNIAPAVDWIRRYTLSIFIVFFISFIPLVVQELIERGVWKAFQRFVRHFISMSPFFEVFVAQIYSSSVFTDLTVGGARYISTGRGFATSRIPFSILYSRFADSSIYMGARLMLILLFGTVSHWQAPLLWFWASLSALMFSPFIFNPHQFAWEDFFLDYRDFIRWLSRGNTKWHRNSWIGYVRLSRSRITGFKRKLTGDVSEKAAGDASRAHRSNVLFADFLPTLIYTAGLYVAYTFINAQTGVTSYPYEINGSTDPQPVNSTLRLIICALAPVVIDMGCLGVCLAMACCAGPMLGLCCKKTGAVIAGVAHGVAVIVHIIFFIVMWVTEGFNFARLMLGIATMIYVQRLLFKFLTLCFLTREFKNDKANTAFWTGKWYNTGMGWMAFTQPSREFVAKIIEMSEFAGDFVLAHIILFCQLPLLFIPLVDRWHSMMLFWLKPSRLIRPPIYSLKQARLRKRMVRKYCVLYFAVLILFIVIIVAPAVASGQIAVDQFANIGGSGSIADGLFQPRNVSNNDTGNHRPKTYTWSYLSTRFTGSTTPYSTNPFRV", "T1 sequence (O42825 1-195 partner limits assumed)": "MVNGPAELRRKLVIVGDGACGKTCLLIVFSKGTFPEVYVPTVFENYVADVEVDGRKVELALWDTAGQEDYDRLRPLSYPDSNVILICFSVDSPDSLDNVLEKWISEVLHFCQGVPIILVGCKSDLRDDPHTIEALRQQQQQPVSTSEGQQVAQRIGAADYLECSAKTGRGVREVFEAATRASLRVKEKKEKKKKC", "assay": "Glucan synthase inhibition (polymerization assay, 96-well)", "type": "biochemical", "conditions": "glucan synthase prepared from Candida albicans MY1055; 60 min incubation at 22° C.; read-out: Candida Albicans GS IC50 (ng/mL) (converted)", "protocol": "The in vitro evaluation of glucan synthase inhibitory activity of compounds was measured in a polymerization assay in 96-well format. Each well contained 100 μL of ^3H-UDPG at 0.5 mM (6000 to 8000 dpm/nmol), 50 mM HEPES pH 7.5 (Sigma), 10% w/v glycerol (Sigma), 1.5 mg/mL bovine serum albumin (Sigma A 9647. Lot 44H0190), 25 mM KF (Fisher), 1 mM EDTA (Gibco ULTRAPURE), 25 μM GTP-γ-S, enzyme sufficient to give 3 to 6 nmoles incorporation during the 60 min incubation at 22° C., and test compound added from wells in 3-fold serial dilutions in 100% DMSO (1 μL/well). The reaction was stopped by the addition of 100 μL of 20% trichloroacetic acid. Plates were chilled for a minimum of 10 min, and precipitated glucan collected by filtration on GF/C plates (Packard UNIFILTER®-96), washed with 5 cycles of water (about 1 mL/well each cycle) using a Packard FILTERMATE HARVESTER. 40 μL/well scintillation fluid (Packard ULTIMA GOLD TM-XR) was added and the sealed plates counted in a WALLAC BETA counter in top-counting mode at an efficiency of approximately 40%.\nStock solutions were stored at 10 mg/mL in DMSO at −20° C. For each new enzyme preparation, the initial titration performed started at 1 mg/mL, which was prepared by making a 10-fold dilution in DMSO (5 μL to 50 μL). 40 μL of this stock was placed in column 12 of a round-bottomed 96-well microtiter plate. 40 μL DMSO was added to columns 1 to 11 in the same row and ten 3-fold serial dilutions performed, by transferring 20 μL from column 12 to column 11 etc., with 4 mixings before each transfer. No test compound was transferred to from column 2 to column 1. Duplicate aliquots of 1 μL of all 12 dilutions were then transferred to the side walls of a 96-well Bioblock 1.1 mL plate (Fisher brand) to create two rows. Graphs of the primary data were created in PRISM software (the average of two determinations) using PRISM's curve fitting program (sigmoidal dose response non-linear regression). The amount of compound required to inhibit glucan synthase activity by 50% in this assay (IC50-ng/mL) was calculated.\nRoutine analysis was performed with glucan synthase (GS) prepared from Candida albicans MY1055 by the following procedure: MY1055 was grown in 10 liters YPD medium (10 g yeast extract, 20 g tryptone, 20 g glucose per liter) with vigorous shaking at 30° C., to early stationary phase. Cells were harvested by centrifugation, the pellet was washed and frozen at −70° C. until breakage. Thawed pellets were shaken with an equal volume of breakage buffer (50 mM HEPES pH 7.4, 10% glycerol, 1 mM EDTA, 1 mM PMSF, 1 mM DTT) and 4 times their weight of 0.5 mm acid washed glass beads for 2 hours at 4° C. Extent of breakage was assessed visually at 40× magnification. After low speed centrifugation to remove cell debris, the supernatant was centrifuged at 100,000×g for 60 min. to separate membranes plus ribosomes from cytoplasmic components. Membranes were further washed two additional times with breakage buffer using the same centrifugation conditions and finally suspended in breakage buffer at 25 to 30 mg/mL protein (Biorad) for storage at −70° C. Extraction of GS activity from membranes was performed at a protein concentration of 5 mg/mL in extraction buffer (50 mM NaPO4 pH 7.5, 0.1 M KCl, 0.1M Na citrate, 20% glycerol, 5 μM GTP-γ-S, 1 mM DTT, 1 mM PMSF, 3 μg/mL pepstatin) plus 0.25% W1 by gentle mixing at 4° C. for 60 min, followed by centrifugation at 100,000×g for 60 min. After centrifugation, clear supernatant was removed from a pellet consisting of a hard layer usually with small amounts of gelatinous unextracted membranes above it.\nTrapping was initiated immediately by 5-fold dilution in trapping buffer (50 mM HEPES pH 7.5, 10 mM KF, 1 mM EDTA, 2 mg/mL BSA) plus 2.5 mM UDPG and 10 μM GTP-γ-S. After incubation at 25° C. for 60 to 90 minutes, glucan was harvested by low speed centrifugation (3,000×g, 10 min). […]", "units": {"IC50": "nM"}}
{"smiles": "CC(C)[C@@H](C)[C@@]1(C)CC[C@]2(C)[C@H]3CC[C@@H]4[C@@]5(COC[C@@]4(C)[C@@H](OC[C@](C)(C(C)C)N(C)C)[C@H](n4nnc(N)n4)C5)C3=CC(=O)[C@@]2(C)[C@@H]1C(=O)O", "note": "(single isomer, unassigned) [Example 15A]", "IC50": 64.6}
{"smiles": "CC(C)[C@@H](C)[C@@]1(C)CC[C@]2(C)[C@H]3CC[C@@H]4C5(COCC4(C)[C@@H](OCC4CCCN4C)[C@H](n4nnc(N)n4)C5)C3=CC[C@@]2(C)[C@@H]1C(=O)O", "note": "(stereo in doubt) [Example 46, (1S,4aR,6aS,7R,8R,10aR,10bR,12aR,14R,15R)-14-(5-amino-2H-tetrazol-2-yl)-8-[(1R)-1,2-dimethylpropyl]-15-[(1-methyl-2-pyrrolidinyl)methoxy]-1,6,6a,7,8,9,10,10a,10b,11,12,12a-dodecahydro-1,6a,8,10a-tetramethyl-4H-1,4a-propano-2H-phenanthro[1,2-c]pyran-7-carboxylic acid]", "IC50": 21.4}
{"smiles": "CC(C)[C@@H](C)[C@@]1(C)CC[C@]2(C)[C@H]3CC[C@@H]4[C@@]5(COC[C@@]4(C)[C@@H](OCC(C)(C)N)[C@H](n4ncnn4)C5)C3=CC[C@@]2(C)[C@@H]1C(=O)O", "note": "[Example 1B, (1S,4aR,6aS,7R,8R,10aR,10bR,12aR,14R,15R)-15-(2-amino-2-methylpropoxy)-8-[(1R)-1,2-dimethylpropyl]-14-(2H-tetrazol-2-yl)-1,6,6a,7,8,9,10,10a,10b,11,12,12a-dodecahydro-1,6a,8,10a-tetramethyl-4H-1,4a-propano-2H-phenanthro[1,2-c]pyran-7-carboxylic acid]", "IC50": 9.81}
{"smiles": "CC(C)[C@@H](C)[C@@]1(C)CC[C@]2(C)[C@H]3CC[C@@H]4[C@@]5(COC[C@@]4(C)[C@@H](OCC(C)(N)C(C)C)[C@H](n4cnnn4)C5)C3=CC[C@@]2(C)[C@@H]1C(=O)O", "note": "(stereo partly drawn) [Example 2A, (1S,4aR,6aS,7R,8R,10aR,10bR,12aR,14R,15R)-15-(2-amino-2,3-dimethylbutoxy)-8-[(1R)-1,2-dimethylpropyl]-14-(1H-tetrazol-1-yl)-1,6,6a,7,8,9,10,10a,10b,11,12,12a-dodecahydro-1,6a,8,10a-tetramethyl-4H-1,4a-propano-2H-phenanthro[1,2-c]pyran-7-carboxylic acid]", "IC50": 82.8}
{"smiles": "CC(C)[C@@H](C)[C@@]1(C)CC[C@]2(C)[C@H]3CC[C@@H]4[C@@]5(COC[C@@]4(C)[C@@H](OCC(C)(C(C)C)N(C)C)[C@H](n4ncnn4)C5)C3=CC(=O)[C@@]2(C)[C@@H]1C(=O)O", "note": "(stereo partly drawn) [Example 4B, (1S,4aR,6aS,7R,8R,10aR,10bR,12aR,14R,15R)-15-[2-(dimethylamino)-2,3-dimethylbutoxy]-8-[(1R)-1,2-dimethylpropyl]-14-(2H-tetrazol-2-yl)-1,6,6a,7,8,9,10,10a,10b,11,12,12a-dodecahydro-1,6a,8,10a-tetramethyl-6-oxo-4H-1,4a-propano-2H-phenanthro[1,2-c]pyran-7-carboxylic acid]", "IC50": 63.1}
{"smiles": "CC(C)[C@@H](C)[C@@]1(C)CC[C@]2(C)[C@H]3CC[C@@H]4[C@@]5(COC[C@@]4(C)[C@@H](OCC(C)(C)N)[C@H](n4nnc(N)n4)C5)C3=CC[C@@]2(C)[C@@H]1C(=O)O", "note": "[Example 6, (1S,4aR,6aS,7R,8R,10aR,10bR,12aR,14R,15R)-15-(2-amino-2-methylpropoxy)-14-(5-amino-2H-tetrazol-2-yl)-8-[(1R)-1,2-dimethylpropyl]-1,6,6a,7,8,9,10,10a,10b,11,12,12a-dodecahydro-1,6a,8,10a-tetramethyl-4H-1,4a-propano-2H-phenanthro[1,2-c]pyran-7-carboxylic acid]", "IC50": 4.79}
{"smiles": "CC(C)[C@@H](C)[C@@]1(C)CC[C@]2(C)[C@H]3CC[C@@H]4[C@@]5(COC[C@@]4(C)[C@@H](OC[C@@](C)(C(C)C)N(C)C)[C@H](n4nnc(N)n4)C5)C3=CC[C@@]2(C)[C@@H]1C(=O)O", "note": "[Example 8, (1S,4aR,6aS,7R,8R,10aR,10bR,12aR,14R,15R)-14-(5-amino-2H-tetrazol-2-yl)-15-[[(2R)-2-(dimethylamino)-2,3-dimethylbutyl]oxy]-8-[(1R)-1,2-dimethylpropyl]-1,6,6a,7,8,9,10,10a,10b,11,12,12a-dodecahydro-1,6a,8,10a-tetramethyl-4H-1,4 a-propano-2H-phenanthro[1,2-c]pyran-7-carboxylic acid]", "IC50": 13.2}
{"smiles": "CC(C)[C@@H](C)[C@@]1(C)CC[C@]2(C)[C@H]3CC[C@@H]4[C@@]5(COC[C@@]4(C)[C@@H](OC[C@](C)(N)C(C)C)[C@H](n4nnnc4N)C5)C3=CC[C@@]2(C)[C@@H]1C(=O)O", "note": "[Example 9, (1S,4aR,6aS,7R,8R,10aR,10bR,12aR,14R,15R)-15-[[(2R)-2-amino-2,3-dimethylbutyl]oxy]-14-(5-amino-1H-tetrazol-1-yl)-8-[(1R)-1,2-dimethylpropyl]-1,6,6a,7,8,9,10,10a,10b,11,12,12a-dodecahydro-1,6a,8,10a-tetramethyl-4H-1,4a-propano-2H-phenanthro[1,2-c]pyran-7-carboxylic acid]", "IC50": 56.5}
{"smiles": "CC(C)[C@@H](C)[C@@]1(C)CC[C@]2(C)[C@H]3CC[C@@H]4[C@@]5(COC[C@@]4(C)[C@@H](OC[C@](C)(C(C)C)N4CCCCC4)[C@H](n4nnc(N)n4)C5)C3=CC[C@@]2(C)[C@@H]1C(=O)O", "note": "[Example 11, (1S,4aR,6aS,7R,8R,10aR,10bR,12aR,14R,15R)-14-(5-amino-2H-tetrazol-2-yl)-15-[[(2S)-2,3-dimethyl-2-(1-piperidinyl)butyl]oxy]-8-[(1R)-1,2-dimethylpropyl]-1,6,6a,7,8,9,10,10a,10b,11,12,12a-dodecahydro-1,6a,8,10a-tetramethyl-4H-1,4a-propano-2H-phenanthro[1,2-c]pyran-7-carboxylic acid]", "IC50": 78.8}
{"smiles": "CC(C)[C@@H](C)[C@@]1(C)CC[C@]2(C)[C@H]3CC[C@@H]4[C@@]5(COC[C@@]4(C)[C@@H](OC[C@](C)(NCCCO)C(C)C)[C@H](n4nnc(N)n4)C5)C3=CC[C@@]2(C)[C@@H]1C(=O)O", "note": "[Example 13, (1S,4aR,6aS,7R,8R,10aR,10bR,12aR,14R,15R)-14-(5-amino-2H-tetrazol-2-yl)-8-[(1R)-1,2-dimethylpropyl]-15-[[(2R)-2-[(3-hydroxypropyl)amino]-2,3-dimethylbutyl]oxy]-1,6,6a,7,8,9,10,10a,10b,11,12,12a-dodecahydro-1,6a,8,10a-tetramethyl-4H-1,4a-propano-2H-phenanthro[1,2-c]pyran-7-carboxylic acid]", "IC50": 2.8}
{"smiles": "CCN[C@@](C)(CO[C@H]1[C@H](n2nnc(N)n2)C[C@@]23COC[C@]1(C)[C@@H]2CC[C@H]1C3=CC[C@@]2(C)[C@H](C(=O)O)[C@@](C)([C@H](C)C(C)C)CC[C@]12C)C(C)(C)C", "note": "[Example 20, (1S,4aR,6aS,7R,8R,10aR,10bR,12aR,14R,15R)-14-(5-amino-2H-tetrazol-2-yl)-8-[(1R)-1,2-dimethylpropyl]-15-[[(2R)-2-(ethylamino)-2,3,3-trimethylbutyl]oxy]-1,6,6a,7,8,9,10,10a,10b,11,12,12a-dodecahydro-1,6a,8,10a-tetramethyl-4H-1,4a-propano-2H-phenanthro[1,2-c]pyran-7-carboxylic acid]", "IC50": 4.3}
